The values that follow come from patent US8415469B2, “Compounds and methods for kinase modulation, and indications therefor” (Plexxikon Inc., priority 2005, dated 2013).

What all share (format): biochemical
The target in one assay is T1, B-Raf V600E (Homo sapiens, UniProt P15056, V600E).
T1 construct: P4254. pFastBacBD-CDC37 BRAF D437-K722-X, V600E; His6 with pFastBac HT leader (TEV site) (N); made in house; host or cells: Sf9 (baculovirus; chaperone CDC37 co-expressed)
Description: AlphaScreen kinase assay, B-Raf V600E. The settings on record: read-out: IC50, activity toward kinase B-Raf V600E.

Another assay has as its target T2, Yes (Homo sapiens, UniProt P07947).
T2 construct: purchased Invitrogen (Carlsbad, Calif.), screening service
Nature of the assay: Z'-Lyte FRET kinase assay (Invitrogen), Yes. The following applies: read-out: IC50, activity toward kinase Yes. The text has this:
The effect of potential modulators of kinase activity can be measured in a variety of different assays known in the art. For example, direct radiometric, indirect FRET or AlphaScreen assays may be used to assess the level of phosphorylation of a substrate in the presence of test compounds in order to determine the inhibitory affect of the compound on the kinase. Invitrogen (Carlsbad, Calif.) uses a FRET based assay for Btk, EGFR, EphB2, Flt3, lrak4, Kdr, MAP2K1, MAPKAPK2, PDGFRB, PKC theta, Stk6 and Yes. For these assays, compounds of the invention were screened by Invitrogen using Z′-Lyte™ kinase assay.
Briefly, the Invitrogen kinase assay involves use of a specific peptide substrate optimized for each kinase, containing a fluorophore at each end that make up the FRET pair. The peptide sensitivity to proteolytic cleavage depends on phosphorylation of the peptide. Non-phosphorylated peptide is cleaved by a protease while peptide phosphorylated by the kinase is not cleaved. Cleavage of the peptide disrupts the FRET between the donor (coumarin) and acceptor (fluorescein) fluorophores, resulting in an increase in the ratio of donor emission to acceptor emission. The emission ratio of coumarin to fluorescein is used to assess the reaction progress. The extent of phosphorylation is determined from the emission ratio, which is low when the kinase is active (phosphorylated peptide is not cleaved, FRET pair connected) or higher for inhibited kinase (non-phosphorylated peptide is cleaved, FRET pair separated). Thus, the assay involves a kinase reaction in the presence of varying concentrations of a given compound, a development reaction with site specific protease, and detection of the fluorescent emission ratio of coumarin and fluorscein. […] Reaction conditions for each kinase are determined to provide optimal reaction times, incubation temperature, kinase and ATP concentrations. Test samples are made up in 1× kinase buffer (50 mM HEPES pH 7.5, 50 mM MgCl2, 5 mM EGTA, 0.05% BRIJ-35) and compound at desired concentration prepared in DMSO such that the final DMSO is 1%. […] Typically, assay plates are prepared to 10 μl final volume per sample, adding 2.5 μl of compound at 4× the desired concentration in 4% DMSO (serial dilution of compound provides concentration curve), 5 μl of the desired kinase mixed with Z′-LYTE™ peptide substrate (2× in 2× kinase buffer, final peptide at 2 μM), and 2.5 μl of 4×ATP solution. All kinase except for MAP2K1 were at 10 μM ATP in the kinase reaction, while MAP2K1 was at 100 μM. Samples are mixed and the kinase reaction is incubated 1 hour at room temperature, after which 5 μl of development solution is added and mixed. After incubation for another 1 hour at room temperature, 5 μl of stop reagent is added to each sample and mixed. The fluorescence signals are measured to determine the emission ratio.

A further assay concerns the target T3, B-Raf (Homo sapiens, UniProt P15056).
T3 construct: purchased Upstate Biotechnology
Description: AlphaScreen kinase assay, B-Raf. The settings on record: read-out: IC50, activity toward kinase B-Raf.

The target in another assay is T4, Ret (Homo sapiens, UniProt P07949).
T4 construct: P1378.pET-SF BI-PTP RET H661-R1012 HIS; made in house
T4 sequence (P07949 with tags, fused parts or gaps): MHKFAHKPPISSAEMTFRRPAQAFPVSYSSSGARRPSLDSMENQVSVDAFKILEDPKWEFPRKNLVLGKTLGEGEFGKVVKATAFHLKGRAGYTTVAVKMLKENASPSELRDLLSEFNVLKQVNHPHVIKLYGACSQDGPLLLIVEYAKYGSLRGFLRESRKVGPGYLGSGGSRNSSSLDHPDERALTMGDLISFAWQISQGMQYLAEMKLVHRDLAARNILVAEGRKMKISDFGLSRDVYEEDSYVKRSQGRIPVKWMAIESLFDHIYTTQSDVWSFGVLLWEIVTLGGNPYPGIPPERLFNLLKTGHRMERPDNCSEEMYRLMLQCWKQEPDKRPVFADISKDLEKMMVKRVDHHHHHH
Nature of the assay: AlphaScreen kinase assay, Ret. The settings on record: read-out: IC50, activity toward kinase Ret.

The next assay addresses T5, Pyk2 (Homo sapiens, UniProt Q14289).
T5 construct: purchased Upstate Biotechnology
Nature of the assay: AlphaScreen kinase assay, Pyk2. The following applies: read-out: IC50, activity toward kinase Pyk2. In general terms: Alpha assays give light when donor and acceptor beads are brought close together.

The next assay concerns the target T6, c-Raf-1 (Homo sapiens, UniProt P04049).
T6 construct: purchased Upstate Biotechnology
Description: AlphaScreen kinase assay, c-Raf-1. The following applies: read-out: IC50, activity toward kinase c-Raf-1.

The next assay has as its target T7, Stk6 (Homo sapiens, UniProt O14965).
T7 construct: purchased Invitrogen (Carlsbad, Calif.), screening service
T7 sequence (O14965 1-403): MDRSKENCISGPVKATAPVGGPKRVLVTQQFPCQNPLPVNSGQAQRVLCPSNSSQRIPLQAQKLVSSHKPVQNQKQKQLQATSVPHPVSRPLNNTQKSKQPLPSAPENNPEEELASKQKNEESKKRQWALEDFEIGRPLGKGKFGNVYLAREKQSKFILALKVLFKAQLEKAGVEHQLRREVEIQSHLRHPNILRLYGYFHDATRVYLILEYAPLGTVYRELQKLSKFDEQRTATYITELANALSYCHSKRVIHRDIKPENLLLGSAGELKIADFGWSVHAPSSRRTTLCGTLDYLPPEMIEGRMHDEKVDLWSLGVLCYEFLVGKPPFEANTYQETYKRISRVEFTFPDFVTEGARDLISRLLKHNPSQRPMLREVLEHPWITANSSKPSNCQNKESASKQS
Nature of the assay: Z'-Lyte FRET kinase assay (Invitrogen), Stk6. The following applies: read-out: IC50, activity toward kinase Stk6.

The target of a further assay is T8, Fak (Homo sapiens, UniProt Q05397).
T8 construct: P1358.pFastBacHtb FAK S411-Q686-X; His6 with pFastBacHTb leader (TEV site) (N); made in house; host or cells: Sf9 (baculovirus)
Description: AlphaScreen kinase assay, Fak. The following applies: read-out: IC50, activity toward kinase Fak.

A further assay addresses T9, Src (Homo sapiens, UniProt P12931).
T9 construct: P1144. pET-N6 BI-PTP SRC V86-L536-X; made in house
Nature of the assay: AlphaScreen kinase assay, Src. The settings on record: read-out: IC50, activity toward kinase Src.

In another assay the target is T10, FGFR1 (Homo sapiens, UniProt P11362, C488A/C584S).
T10 construct: P1351.pET N6 BI-PTP FGFR A458-E765-X C488A, C584S; made in house; host or cells: E. coli (PTP1B co-expressed)
Nature of the assay: AlphaScreen kinase assay, FGFR1. The settings on record: read-out: IC50, activity toward kinase FGFR.

The target of the next assay is T11, Kit (Homo sapiens, UniProt P10721).
T11 construct: P1332.N6 BI PTP KIT M552-K948-X COD; His6 (N); made in house; host or cells: E. coli (PTP1B co-expressed)
Nature of the assay: AlphaScreen kinase assay, Kit. The following applies: read-out: IC50, activity toward kinase Kit.

The next assay concerns the target T12, Fms (Homo sapiens, UniProt P07333).
T12 construct: purchased Upstate Biotechnology
Description: AlphaScreen kinase assay, Fms. The settings on record: read-out: IC50, activity toward kinase Fms.

In another assay the target is T13, Zap70 (Homo sapiens, UniProt P43403).
T13 construct: P1868.pFastBac1 ZAP70 D327-G606 HIS, WT; His7 (HHHHHHH) (C); made in house
T13 sequence (P43403 with tags, fused parts or gaps): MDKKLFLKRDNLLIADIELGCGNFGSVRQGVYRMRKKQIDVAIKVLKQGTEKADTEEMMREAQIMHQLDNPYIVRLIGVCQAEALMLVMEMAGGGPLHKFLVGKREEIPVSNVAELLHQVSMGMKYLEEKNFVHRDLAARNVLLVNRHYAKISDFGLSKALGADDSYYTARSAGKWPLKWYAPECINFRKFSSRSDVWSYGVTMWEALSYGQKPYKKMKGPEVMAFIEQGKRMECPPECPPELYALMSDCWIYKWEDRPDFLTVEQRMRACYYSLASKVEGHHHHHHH
Description: AlphaScreen kinase assay, Zap70. The settings on record: read-out: IC50, activity toward kinase Zap70. From the text: AlphaScreen assay was used to screen additional kinases. The assay is similarly dependent on the phosphorylation of a peptide substrate. In this assay, an antibody that recognizes phosphorylated substrate is bound to an acceptor bead. The peptide substrate is attached to biotin, which binds to a donor head that contains streptavidin. Thus phosphorylated substrate is bound by antibody and streptavidin, bringing the donor and acceptor heads into close proximity when kinase is not inhibited. The donor produces singlet oxygen which results in emission from the acceptor when they are in close proximity. Conversely, when kinase is inhibited, the donor and acceptor beads are not associated and the emission from the acceptor is reduced.
AlphaScreen assays were done using compounds dissolved in DMSO to a concentration of 20 mM. The compounds were diluted accordingly to the desired final concentrations in each sample well, using 1:3 serial dilution for a total of 8 concentration points.

A value given as a limit tells only on which side of the number the result lay.

T3 sequence (P15056 whole entry): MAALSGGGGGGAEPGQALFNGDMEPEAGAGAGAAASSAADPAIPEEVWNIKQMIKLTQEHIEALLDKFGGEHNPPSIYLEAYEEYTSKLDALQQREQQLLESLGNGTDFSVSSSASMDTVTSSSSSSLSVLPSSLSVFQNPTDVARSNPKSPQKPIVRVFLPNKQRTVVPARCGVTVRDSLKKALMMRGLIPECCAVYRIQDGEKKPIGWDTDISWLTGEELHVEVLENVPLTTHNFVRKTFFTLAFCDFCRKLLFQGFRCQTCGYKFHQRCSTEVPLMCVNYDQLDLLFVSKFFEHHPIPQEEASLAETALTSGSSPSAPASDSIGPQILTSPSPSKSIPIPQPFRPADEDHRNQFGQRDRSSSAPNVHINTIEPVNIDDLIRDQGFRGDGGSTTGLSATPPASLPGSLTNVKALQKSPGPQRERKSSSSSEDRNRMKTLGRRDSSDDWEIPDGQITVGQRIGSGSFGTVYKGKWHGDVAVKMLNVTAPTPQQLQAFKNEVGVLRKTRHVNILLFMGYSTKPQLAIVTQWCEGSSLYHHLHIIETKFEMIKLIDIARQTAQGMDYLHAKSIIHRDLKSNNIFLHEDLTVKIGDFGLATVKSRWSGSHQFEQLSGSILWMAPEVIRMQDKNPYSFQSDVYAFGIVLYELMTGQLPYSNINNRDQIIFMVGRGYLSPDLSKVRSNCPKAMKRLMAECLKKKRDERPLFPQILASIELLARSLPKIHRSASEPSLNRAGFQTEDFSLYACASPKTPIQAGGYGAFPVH
T1 sequence (P15056 with tags, fused parts or gaps V600E): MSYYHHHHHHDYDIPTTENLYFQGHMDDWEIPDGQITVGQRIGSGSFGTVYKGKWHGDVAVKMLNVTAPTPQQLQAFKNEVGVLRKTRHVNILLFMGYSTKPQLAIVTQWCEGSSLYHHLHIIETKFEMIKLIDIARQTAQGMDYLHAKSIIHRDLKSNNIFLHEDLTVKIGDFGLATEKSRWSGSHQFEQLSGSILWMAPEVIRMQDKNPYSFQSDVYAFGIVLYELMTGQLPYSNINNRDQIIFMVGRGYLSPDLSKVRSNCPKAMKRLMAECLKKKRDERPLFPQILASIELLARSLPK
T2 sequence (P07947 whole entry): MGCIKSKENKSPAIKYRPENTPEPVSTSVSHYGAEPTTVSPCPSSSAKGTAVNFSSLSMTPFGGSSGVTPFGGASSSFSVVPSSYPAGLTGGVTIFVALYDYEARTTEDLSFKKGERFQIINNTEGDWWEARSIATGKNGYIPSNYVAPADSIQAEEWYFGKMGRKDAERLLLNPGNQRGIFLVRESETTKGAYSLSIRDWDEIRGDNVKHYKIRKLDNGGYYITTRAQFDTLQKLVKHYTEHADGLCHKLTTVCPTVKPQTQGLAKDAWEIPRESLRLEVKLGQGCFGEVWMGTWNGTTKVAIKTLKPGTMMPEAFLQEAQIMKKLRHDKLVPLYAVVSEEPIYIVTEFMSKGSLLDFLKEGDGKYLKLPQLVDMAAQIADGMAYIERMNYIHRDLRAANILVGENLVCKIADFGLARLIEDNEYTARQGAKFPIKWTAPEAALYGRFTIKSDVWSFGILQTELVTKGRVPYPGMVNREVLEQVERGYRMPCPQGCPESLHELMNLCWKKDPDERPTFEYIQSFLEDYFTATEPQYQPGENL
T9 sequence (P12931 with tags, fused parts or gaps): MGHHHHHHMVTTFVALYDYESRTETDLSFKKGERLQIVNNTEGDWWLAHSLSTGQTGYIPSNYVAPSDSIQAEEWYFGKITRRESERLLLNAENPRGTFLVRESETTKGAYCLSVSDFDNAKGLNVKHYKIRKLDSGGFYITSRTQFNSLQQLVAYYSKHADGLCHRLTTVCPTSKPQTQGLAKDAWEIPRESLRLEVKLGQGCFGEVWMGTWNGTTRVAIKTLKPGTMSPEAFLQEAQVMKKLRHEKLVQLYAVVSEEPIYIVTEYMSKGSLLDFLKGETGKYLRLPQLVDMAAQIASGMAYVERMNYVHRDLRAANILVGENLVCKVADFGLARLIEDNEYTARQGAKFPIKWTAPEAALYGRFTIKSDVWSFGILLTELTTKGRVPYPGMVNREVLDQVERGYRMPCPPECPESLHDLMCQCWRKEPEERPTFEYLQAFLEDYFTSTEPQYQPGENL
T6 sequence (P04049 whole entry): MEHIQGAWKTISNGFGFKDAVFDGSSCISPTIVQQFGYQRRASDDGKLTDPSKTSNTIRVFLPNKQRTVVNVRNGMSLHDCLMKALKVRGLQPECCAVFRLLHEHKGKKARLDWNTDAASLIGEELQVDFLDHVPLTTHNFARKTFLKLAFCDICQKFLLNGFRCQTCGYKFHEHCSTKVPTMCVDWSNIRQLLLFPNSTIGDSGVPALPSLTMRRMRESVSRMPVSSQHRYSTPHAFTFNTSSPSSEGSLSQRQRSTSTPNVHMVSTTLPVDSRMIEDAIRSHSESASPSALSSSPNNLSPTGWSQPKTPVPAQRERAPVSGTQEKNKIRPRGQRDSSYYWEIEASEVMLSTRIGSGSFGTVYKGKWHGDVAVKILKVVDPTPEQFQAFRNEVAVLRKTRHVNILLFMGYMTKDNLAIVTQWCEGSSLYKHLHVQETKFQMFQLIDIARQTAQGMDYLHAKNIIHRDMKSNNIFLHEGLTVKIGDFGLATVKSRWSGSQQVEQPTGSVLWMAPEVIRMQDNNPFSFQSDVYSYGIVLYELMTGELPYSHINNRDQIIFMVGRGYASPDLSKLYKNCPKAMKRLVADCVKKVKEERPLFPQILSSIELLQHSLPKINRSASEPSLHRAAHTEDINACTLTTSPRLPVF
T8 sequence (Q05397 411-686): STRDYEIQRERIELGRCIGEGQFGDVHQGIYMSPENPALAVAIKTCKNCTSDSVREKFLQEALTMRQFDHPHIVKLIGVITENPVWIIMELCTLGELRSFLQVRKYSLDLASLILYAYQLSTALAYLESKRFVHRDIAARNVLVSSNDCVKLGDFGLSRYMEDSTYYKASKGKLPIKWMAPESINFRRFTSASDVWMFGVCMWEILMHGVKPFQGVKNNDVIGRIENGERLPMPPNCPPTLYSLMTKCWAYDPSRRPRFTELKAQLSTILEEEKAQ
T5 sequence (Q14289 whole entry): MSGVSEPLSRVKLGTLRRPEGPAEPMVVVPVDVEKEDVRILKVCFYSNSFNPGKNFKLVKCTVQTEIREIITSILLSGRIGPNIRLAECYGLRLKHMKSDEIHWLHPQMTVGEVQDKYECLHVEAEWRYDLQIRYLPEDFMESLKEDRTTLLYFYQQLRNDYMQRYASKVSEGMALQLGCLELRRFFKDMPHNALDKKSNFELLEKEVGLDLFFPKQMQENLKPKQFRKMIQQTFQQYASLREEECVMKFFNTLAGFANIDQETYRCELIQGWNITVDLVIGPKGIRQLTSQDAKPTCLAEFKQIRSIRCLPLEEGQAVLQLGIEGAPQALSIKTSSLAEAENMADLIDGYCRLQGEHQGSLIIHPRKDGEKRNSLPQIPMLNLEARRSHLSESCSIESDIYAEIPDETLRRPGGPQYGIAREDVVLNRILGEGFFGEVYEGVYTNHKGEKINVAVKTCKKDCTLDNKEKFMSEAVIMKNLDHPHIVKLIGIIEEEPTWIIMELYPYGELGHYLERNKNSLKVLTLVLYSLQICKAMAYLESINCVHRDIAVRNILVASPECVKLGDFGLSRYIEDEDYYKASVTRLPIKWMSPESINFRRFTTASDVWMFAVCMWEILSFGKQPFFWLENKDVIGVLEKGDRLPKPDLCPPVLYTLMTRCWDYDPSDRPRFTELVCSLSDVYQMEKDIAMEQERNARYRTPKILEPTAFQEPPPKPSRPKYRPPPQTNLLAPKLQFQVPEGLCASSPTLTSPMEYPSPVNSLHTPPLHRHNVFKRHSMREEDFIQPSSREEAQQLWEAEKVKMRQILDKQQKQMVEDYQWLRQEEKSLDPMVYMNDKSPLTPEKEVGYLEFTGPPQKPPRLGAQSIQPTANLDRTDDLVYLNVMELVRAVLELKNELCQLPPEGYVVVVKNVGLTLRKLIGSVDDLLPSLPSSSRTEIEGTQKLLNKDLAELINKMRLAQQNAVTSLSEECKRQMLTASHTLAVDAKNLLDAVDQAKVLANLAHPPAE
T12 sequence (P07333 20-972): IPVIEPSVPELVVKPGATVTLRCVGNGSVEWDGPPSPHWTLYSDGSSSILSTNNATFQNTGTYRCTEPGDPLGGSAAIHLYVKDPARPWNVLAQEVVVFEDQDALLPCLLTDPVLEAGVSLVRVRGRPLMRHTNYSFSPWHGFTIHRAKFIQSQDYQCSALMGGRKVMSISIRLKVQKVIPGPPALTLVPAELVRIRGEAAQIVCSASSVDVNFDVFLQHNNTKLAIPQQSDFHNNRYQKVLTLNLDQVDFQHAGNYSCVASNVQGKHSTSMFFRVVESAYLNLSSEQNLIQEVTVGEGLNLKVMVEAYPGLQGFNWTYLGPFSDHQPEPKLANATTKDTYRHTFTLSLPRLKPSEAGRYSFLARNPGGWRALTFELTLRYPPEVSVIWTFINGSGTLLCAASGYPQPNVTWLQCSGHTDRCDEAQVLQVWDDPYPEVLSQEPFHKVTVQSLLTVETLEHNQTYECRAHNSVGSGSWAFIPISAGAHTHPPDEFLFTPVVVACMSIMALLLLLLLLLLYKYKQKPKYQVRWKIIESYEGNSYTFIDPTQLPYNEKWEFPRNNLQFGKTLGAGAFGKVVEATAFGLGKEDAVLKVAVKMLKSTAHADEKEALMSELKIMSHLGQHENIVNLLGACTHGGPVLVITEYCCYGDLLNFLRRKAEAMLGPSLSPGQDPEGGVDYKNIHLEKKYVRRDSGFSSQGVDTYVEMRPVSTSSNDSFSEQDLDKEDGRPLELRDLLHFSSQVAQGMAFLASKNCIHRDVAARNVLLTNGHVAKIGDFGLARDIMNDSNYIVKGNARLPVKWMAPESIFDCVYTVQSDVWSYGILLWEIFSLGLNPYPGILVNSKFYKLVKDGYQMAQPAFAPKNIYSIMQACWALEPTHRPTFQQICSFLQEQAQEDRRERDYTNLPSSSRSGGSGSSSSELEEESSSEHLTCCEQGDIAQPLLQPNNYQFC

As to `O=C(Nc1ccc(F)c(C(O)c2c[nH]c3ncc(-c4cccnc4)cc23)c1F)OCc1ccccc1` (stereo not shown) [Compound P-0095, {2,4-Difluoro-3-[hydroxy-(5-pyridin-3-yl-1H-pyrrolo[2,3b]pyridin-3-yl)-methyl]-phenyl}-carbamic acid benzyl ester], the IC50 on B-Raf V600E, on Yes, on B-Raf, on Ret and at Pyk2 was not above 10 µM in each case.
Consider `CCCS(=O)(=O)Nc1ccc(F)c(C(O)c2c[nH]c3ncc(Br)cc23)c1F` (stereo not shown) [Compound P-0188, Propane-1-sulfonic acid {3-[(5-bromo-1H-pyrrolo[2,3-b]pyridin-3-yl)-hydroxy-methyl]-2,4-difluoro-phenyl}-amide], for which the IC50 on B-Raf V600E, on c-Raf-1, on Yes, at B-Raf, on Stk6 and at Pyk2 was not above 10 µM each time.
Take `COc1cccc(-c2ccc3c(CNS(=O)(=O)c4ccc(C)cc4)c[nH]c3n2)c1` [Compound P-0209]: the IC50 on Yes, at Fak and on Src was not above 10 µM in each case.
In the case of `CS(=O)(=O)Nc1ccc(F)c(C(=O)c2c[nH]c3ncc(-c4cccc(S(C)(=O)=O)c4)cc23)c1F` [Compound P-0210], the IC50 at FGFR1, at B-Raf V600E, on c-Raf-1, on Yes, at Fak and at B-Raf was not above 10 µM in each case. Also, the IC50 on Src, at Ret, on Kit and at Fms was not above 10 µM in each case.
Take `O=C(c1ccc(NCc2cccs2)nc1)c1c[nH]c2ncccc12` [Compound P-0237]: the IC50 at B-Raf V600E, at Yes, at Src, on Stk6 and at Fms was not above 10 µM in each case.
As to `O=C(c1ccccc1)c1c[nH]c2c1cc(Br)c[n+]2[O-]` [Compound P-0275], at Zap70, the IC50 (usually the concentration that gives 50% inhibition) is not above 10 µM.
Same read-out and setting: for `Clc1ccnc2[nH]ccc12` [Compound P-0342] the value was not above 10 µM.
Same read-out and setting: next, `COc1ccc(Cc2c[nH]c3ncccc23)cc1F` [Compound P-0359]: not above 10 µM; `Clc1ccc(/C=C\c2c[nH]c3ncccc23)cn1` [Compound P-0360]: not above 10 µM; `c1cncc(-c2ccnc3[nH]ccc23)c1` [Compound P-0387]: not above 10 µM.
Regarding `Cc1cc2cccnc2[nH]1` [Compound P-0394], the IC50 at Zap70 is not above 10 µM.
`O=C(CCc1c[nH]c2ncccc12)NCc1cccnc1` [Compound P-0456]: the IC50 at Zap70 is not above 10 µM.
Still for that read-out and setting: next, `CC(C)(C)NCc1c[nH]c2ncccc12` [Compound P-0476]: not above 10 µM; `O=S(=O)(NCc1c[nH]c2ncccc12)c1cccc(-c2cccc(CO)c2)c1` [Compound P-0484]: not above 10 µM.
For the compound `N#Cc1ccc(/C=C\c2c[nH]c3ncccc23)cc1` [Compound P-0500], the 50% inhibitory concentration (IC50) on Zap70 was not above 10 µM.
Still for that read-out and setting: for `CS(=O)(=O)c1ccc(CNCc2[nH]c3ncccc3c2-c2cccc(CO)c2)cc1` [Compound P-0523] the value was not above 10 µM; for `COC(=O)c1ccc(CCc2c[nH]c3ncccc23)cc1` [Compound P-0586], not above 10 µM.
As to `Fc1ccc(Cc2nc(-c3c[nH]c4ncccc34)no2)cc1` [Compound P-0602], the IC50 on Zap70 is not above 10 µM.
Turning to `O=C(OCc1ccccc1)c1cnc2[nH]ccc2c1` [Compound P-0607], the half-inhibitory concentration (IC50) at Zap70 was not above 10 µM.
With `CCOC(=O)C(Cc1c[nH]c2ncccc12)C(=O)OCC` [Compound P-0642], the IC50 at Zap70 is not above 10 µM.
For the compound `O=Cc1c[nH]c2nccc(Cl)c12` [Compound P-0649], the IC50 at Zap70 was not above 10 µM.
For the compound `COc1cccc(-c2ccc(S(=O)(=O)NCc3c[nH]c4ncccc34)s2)c1` [Compound P-0676], the IC50 on Zap70 is not above 10 µM.
